Publication PMC10977697 (PLOS ONE, 2024)
Where no end group is shown, it is not given here.

What was measured:
Lgr5ECD-Fc = type: binding, human; details: ratio of signal for target protein over BSA background
ApoL1 = assay: Spot phage ELISA, ApoL1; type: binding, human; details: ratio of signal for target protein over BSA background

Which S/N (Lgr5ECD-Fc) does the source give for “GCGYWYRIWFCKQDSDCLAGCVCGPNGFCG (also: bicyclic or more (positions not given here)) [Lgr5ECD-Fc EET I-II 3]” here?
The S/N was 43.5.

How did the S/N (Lgr5ECD-Fc) turn out when “GPTQSQYGLCGGIGYSGPTVCASGTTCQVLDPTTSQCLPGAS (also: bicyclic or more (positions not given here)) [Lgr5ECD-Fc CBD 15]” was run?
Its S/N is 8.9.

With “GCSYWWRVWFCKQDSDCLAGCVCGPNGFCG (also: bicyclic or more (positions not given here)) [Lgr5ECD-Fc EET I-II 19]” as the substance, how does the S/N (Lgr5ECD-Fc) read?
The S/N was 7.2.

“GCGYWFYEWFCKQDSDCLAGCVCDPNGFCG (also: bicyclic or more (positions not given here)) [Lgr5ECD-Fc EET I-II 11]” was tested. Which S/N (Lgr5ECD-Fc) did it give?
The S/N was 21.7.

Which S/N (Lgr5ECD-Fc) does the source give for “GCYHGYWYITWFCKQDSDCLAGCVCSQDEQCG (also: bicyclic or more (positions not given here)) [Lgr5ECD-Fc EET I-II 21]” here?
Its S/N is 5.1.

For “GPTQSTWGQCGGIGYSGPTVCASGTTCQVLWPTLSWCLPGAS (also: bicyclic or more (positions not given here)) [Lgr5ECD-Fc CBD 5]”, which S/N (Lgr5ECD-Fc) is on record?
Its S/N is 38.3.

“GCMNSYWYNQWFCKQDSDCLAGCVCGPNGFCG (also: bicyclic or more (positions not given here)) [Lgr5ECD-Fc EET I-II 1]” was tested. Which S/N (Lgr5ECD-Fc) did it give?
Its S/N is 47.1.

For “GPTQSQFGMCGGIGYSGPTVCASGTTCQVLDPTTSQCLPGAS (also: bicyclic or more (positions not given here)) [Lgr5ECD-Fc CBD 4]”, which S/N (Lgr5ECD-Fc) is on record?
The S/N was 40.8.

For “GPTQSVYGICGGIGYSGPTVCASGTTCQVLSPEFSQCLPGAS (also: bicyclic or more (positions not given here)) [Lgr5ECD-Fc CBD 11]”, which S/N (Lgr5ECD-Fc) is on record?
The S/N was 23.1.

Which S/N (Lgr5ECD-Fc) does the source give for “GCGYWWVQWFCKQDSDCLAGCVCGPNGFCD (also: bicyclic or more (positions not given here)) [Lgr5ECD-Fc EET I-II 17]” here?
Its S/N is 10.3.

For “GCRHGYWFHYWFCKQDSDCLAGCVCGPNGFCG (also: bicyclic or more (positions not given here)) [Lgr5ECD-Fc EET I-II 23]”, which S/N (Lgr5ECD-Fc) is on record?
Its S/N is 3.9.

With “GPTQSAFGPCGGIGYSGPTVCASGTTCQVLSPDVSRCLPGAS (also: bicyclic or more (positions not given here)) [Lgr5ECD-Fc CBD 8]” as the substance, how does the S/N (Lgr5ECD-Fc) read?
Its S/N is 30.3.

For “GPTQSQYGICGGIGYSGPTVCASGTTCQVLSPDWSQCLPGAS (also: bicyclic or more (positions not given here)) [Lgr5ECD-Fc CBD 9]”, which S/N (Lgr5ECD-Fc) is on record?
Its S/N is 23.7.

“GCLFRNLRMACKQDSDCLAGCVCGPNGFCG (also: bicyclic or more (positions not given here)) [Lgr5ECD-Fc EET I-II 24]” was tested. Which S/N (Lgr5ECD-Fc) did it give?
The S/N was 13.9.

How did the S/N (Lgr5ECD-Fc) turn out when “GCNRSYWFRQWFCKQDSDCLAGCVCGPNGFCG (also: bicyclic or more (positions not given here)) [Lgr5ECD-Fc EET I-II 22]” was run?
The S/N was 4.7.

Which S/N (Lgr5ECD-Fc) does the source give for “GPTQSVYGICGGIGYSGPTVCASGTTCQVLDPTTSQCLPGAS (also: bicyclic or more (positions not given here)) [Lgr5ECD-Fc CBD 12]” here?
Its S/N is 18.9.

How did the S/N (Lgr5ECD-Fc) turn out when “GCGFWYMQWFCKQDSDCLAGCVCDPMGNCG (also: bicyclic or more (positions not given here)) [Lgr5ECD-Fc EET I-II 6]” was run?
The S/N was 36.2.

For “GCWVNFWMCKQDSDCLAGCVCRVLDVCG (also: bicyclic or more (positions not given here)) [Lgr5ECD-Fc EET I-II 26]”, which S/N (Lgr5ECD-Fc) is on record?
The S/N was 11.7.

Which S/N (Lgr5ECD-Fc) does the source give for “GPTQSOYGMCGGIGYSGPTVCASGTTCQVLDPTTSQCLPGAS (bicyclic or more) [Lgr5ECD-Fc CBD 18]” here?
Its S/N is 34.5.

Which S/N (Lgr5ECD-Fc) does the source give for “GCLYLGWLCKQDSDCLAGCVCDYFWYCVHqS (bicyclic or more) [Lgr5ECD-Fc EET I-II 25]” here?
The S/N was 19.5.

How did the S/N (Lgr5ECD-Fc) turn out when “GPTQSVYGMCGGIGYSGPTVCASGTTCQVLDPTTSQCLPGAS (also: bicyclic or more (positions not given here)) [Lgr5ECD-Fc CBD 3]” was run?
The S/N was 41.0.

Which S/N (Lgr5ECD-Fc) does the source give for “GPTQSPGGICGGIGYSGPTVCASGTTCQVLSPEYSQCLPGAS (also: bicyclic or more (positions not given here)) [Lgr5ECD-Fc CBD 7]” here?
Its S/N is 34.9.

Which S/N (Lgr5ECD-Fc) does the source give for “GPTQSTYGQCGGIGYSGPTVCASGTTCQVLWPALSWCLPGAS (also: bicyclic or more (positions not given here)) [Lgr5ECD-Fc CBD 1]” here?
The S/N was 43.0.

“GPTQSAYGQCGGIGYSGPTVCASGTTCQVLWPQVSWCLPGAS (also: bicyclic or more (positions not given here)) [Lgr5ECD-Fc CBD 13]” was tested. Which S/N (Lgr5ECD-Fc) did it give?
The S/N was 14.2.

For “GCGFWWKYWFCKQDSDCLAGCVCGPNGFCG (also: bicyclic or more (positions not given here)) [Lgr5ECD-Fc EET I-II 20]”, which S/N (Lgr5ECD-Fc) is on record?
Its S/N is 6.1.

Which S/N (Lgr5ECD-Fc) does the source give for “GCGWWYRQWFCKQDSDCLAGCVCLETPECG (also: bicyclic or more (positions not given here)) [Lgr5ECD-Fc EET I-II 4]” here?
Its S/N is 40.2.

For “GCQQGYWYWQWFCKQDSDCLAGCVCGPNGFCG (also: bicyclic or more (positions not given here)) [Lgr5ECD-Fc EET I-II 7]”, which S/N (Lgr5ECD-Fc) is on record?
Its S/N is 33.7.

“GCASGYWWRMWFCKQDSDCLAGCVCGPNGFCG (also: bicyclic or more (positions not given here)) [Lgr5ECD-Fc EET I-II 15]” was tested. Which S/N (Lgr5ECD-Fc) did it give?
Its S/N is 14.1.

With “GPTQSHYGLCGGIGYSGPTVCASGTTCQVLSPEFSQCLPGAS (also: bicyclic or more (positions not given here)) [Lgr5ECD-Fc CBD 10]” as the substance, how does the S/N (Lgr5ECD-Fc) read?
The S/N was 23.6.

How did the S/N (Lgr5ECD-Fc) turn out when “GCGYWWKQWFCKQDSDCLAGCVCGPNGFCG (also: bicyclic or more (positions not given here)) [Lgr5ECD-Fc EET I-II 10]” was run?
Its S/N is 25.7.

“GPTQSAFGPCGGIGYSGPTVCASGTTCQVLSPDVSQCLPGAS (also: bicyclic or more (positions not given here)) [Lgr5ECD-Fc CBD 6]” was tested. Which S/N (Lgr5ECD-Fc) did it give?
Its S/N is 36.0.

Which S/N (Lgr5ECD-Fc) does the source give for “GPTQSAFGPCGGIGYSGHTVCASGTTCQVLSPNVSHCLPGAS (also: bicyclic or more (positions not given here)) [Lgr5ECD-Fc CBD 16]” here?
Its S/N is 6.6.

Which S/N (Lgr5ECD-Fc) does the source give for “GCAVYQVYCKQDSDCLAGCVCAVKFHCG (also: bicyclic or more (positions not given here)) [Lgr5ECD-Fc EET I-II 12]” here?
The S/N was 21.6.

For “GCGYWYKQWFCKQDSDCLAGCVCGPNGFCG (also: bicyclic or more (positions not given here)) [Lgr5ECD-Fc EET I-II 8]”, which S/N (Lgr5ECD-Fc) is on record?
Its S/N is 32.0.

For “GCGYWWRLWFCKQDSDCLAGCVCGPNGSCG (also: bicyclic or more (positions not given here)) [Lgr5ECD-Fc EET I-II 14]”, which S/N (Lgr5ECD-Fc) is on record?
The S/N was 15.3.

“GCKFKAHSCKQDSDCLAGCVCSGQDPGCG (also: bicyclic or more (positions not given here)) [ApoL1 EET I-II 30]” was tested. Which S/N (ApoL1) did it give?
Its S/N is 18.9.

For “GCMFKRYFCKQDSDCLAGCVCPHDDQCG (also: bicyclic or more (positions not given here)) [ApoL1 EET I-II 34]”, which S/N (ApoL1) is on record?
Its S/N is 14.2.

With “GCKFKRWTCKQDSDCLAGCVCEQPGMCG (also: bicyclic or more (positions not given here)) [ApoL1 EET I-II 19]” as the substance, how does the S/N (ApoL1) read?
The S/N was 37.0.

Which S/N (ApoL1) does the source give for “GCKFKEWFCKQDSDCLAGCVCEHSQSCG (also: bicyclic or more (positions not given here)) [ApoL1 EET I-II 20]” here?
Its S/N is 36.0.
